The values that follow come from article PMC12677653, “Inhibition of Tumor Lipogenesis and Growth by Peptide‐Based Targeting of SREBP Activation” (Advanced Science, 2025).

By AUC(0-t) is commonly meant exposure summed from dosing to a finite time, without extrapolation to infinity. Low values mean less exposure, high ones more exposure.

Details of series [1]: species or system ICR male mice. The note with it: mouse, in vivo, iv, 10 mg/kg. Here is the method:
Figure 2 LNPs with a 1:1 ratio of TAT to cRGD effectively accumulate in tumor tissues. a) Schematic illustration of LNP composition. b,c) Biodistribution analysis of differently sized LNPs in Huh7 tumor‐bearing BALB/c‐nude mice (n = 3). (b) In vivo fluorescence imaging at 8, 12, 24, and 48 h post‐intravenous injection (10 mg kg^−1). The arrows indicate the tumor site. (c) Ex vivo fluorescence imaging of tumors and major organs harvested 48 h post‐injection. d,e) Optimization of TAT/cRGD peptide coating ratios for tumor‐targeted LNPs (n = 3). (d) In vivo fluorescence imaging at 12, 24, and 48 h post‐injection. The arrows indicate the tumor site. (e) Ex vivo fluorescence imaging of tumors and organs at 48 h. f) Pharmacokinetic profile of LNP@Insig1/2 loop 1 peptide versus free peptide (Insig1/2 loop 1 peptide) following intravenous administration in ICR mice (n = 3, 10 mg kg^−1). Plasma concentration‐time curves were quantified, and pharmacokinetic parameters were calculated: AUC (0–t) (h·ng mL^−1) and AUC (0–∞) (h·ng mL^−1). Data are expressed as mean ± SD (n = 3). Statistical significance was determined by one‐way analysis of variance (ANOVA). * p < 0.05, ** p < 0.01, *** p < 0.001, **** p < 0.0001, ns, no significance. TEXT PRINTED IN THE PICTURE: (f) Peptide: Tlast (h): 0.500±0; T1/2 (h): 0.084±0.0143; AUC(0-t) (h*ng/mL): 326±71.8; AUC(0-∞)(h*ng/mL): 331±73.0; Cl(L/kg/min): 0.518±0.109 | (f) LNP@Insig1/2 loop1 peptide: Tlast (h): 5.00±1.155; T1/2 (h): 0.724±0.183; AUC(0-t) (h*ng/mL): 4928±1425; AUC(0-∞)(h*ng/mL): 4955±1422; Cl(L/kg/min): 0.0337±0.0191 DOUBTS OF THE COPYIST ABOUT THIS PICTURE: Peptide, T1/2 (h): 0.084±0.0143, small print, 8 or 6 and 3 or 5 not certain / Peptide, AUC(0-t): 326±71.8, small print, 6 or 8 not certain / Peptide, AUC(0-∞): 331±73.0, small print, 3 or 8 not certain / Peptide, Cl: 0.518±0.109, small print, 8 and 9 not certain / LNP@Insig1/2 loop1 peptide, T1/2 (h): 0.724±0.183, small print, 8 and 3 not certain / LNP@Insig1/2 loop1 peptide, AUC(0-t): 4928±1425, small print, 9, 8 and 5 not certain / LNP@Insig1/2 loop1 peptide, AUC(0-∞): 4955±1422, small print, 9 and 5 not certain / LNP@Insig1/2 loop1 peptide, Cl: 0.0337±0.0191, small print, 3 and 9 not certain
The pharmacokinetic assay of Insig1/2 loop 1 peptide and LNP@ Insig1/2 loop 1 peptide was performed in ICR male mice. The male mice were administered intravenously (iv) at a dose of 10 mg kg^−1. Then, blood samples were collected into tubes containing EDTA at 0.083, 0.25, 0.5, 1, 2, 4, 8, 24 h (iv) after dosing. After centrifugation at 6000 rpm for 10 min at 4 °C, the obtained plasma samples were stored at ‐20 °C. Subsequently, the plasma samples were analyzed by liquid (LC‐MS/MS) chromatography‐tandem mass spectrometry analysis.

Series [2] deals with Insig1 pS207/Insig2 pS151, SREBP1, Ki67. Kind of series: IHC analysis of mouse tumors derived from Huh7 cells. The note with it: peptide given as LNP@Insig1/2 loop 1 peptide 10 mg/kg iv, lenvatinib mesylate 2 mg/kg oral. In kind it is in vivo, BALB/c athymic nude mice. Here is the method:
(§1) Representative micrographs are shown (scale bar: 20 µm). b,c) Cryosections of mouse tumor tissues were prepared for histological analysis. (b) Lipid accumulation was assessed by Oil Red O staining. Representative micrographs are shown (scale bar: 20 µm). (c) Apoptotic cells were detected by TUNEL assay. Representative micrographs are shown (scale bar: 20 µm). d,e) Quantitative analysis of (d) apoptotic areas (TUNEL‐positive regions) and (e) lipid droplet counts (Oil Red O‐positive particles) was performed. Data represent the mean ± SD (n = 4). Statistical significance was determined by one‐way analysis of variance (ANOVA). ** p < 0.01, **** p < 0.0001, ns, no significance.
As described previously,^[ [39] ^] IHC staining was performed using the Vectastain ABC kit (Vector Laboratories) according to the manufacturer's instructions. Sections of paraffin‐embedded xenograft tumors were stained with antibodies against Ki67, SREBP1, Insig1 pS207/Insig2 pS151, and nonspecific IgG was used as a negative control. Paraffin‐embedded human liver tumor sections were stained with antibodies against Ki67, SREBP1, Insig1 pS207/Insig2 pS151, with nonspecific IgG as a negative control. The tissue sections were quantitatively scored according to the percentage of positive cells and staining intensity. […] The intensity of staining was rated on a scale of 0 to 3: 0, negative; 1, weak; 2, moderate; and 3, strong. The study then combined the proportion and intensity scores to obtain a total score (range, 0–8).

The test system of a further series is tumor cell apoptosis. Put plainly: TUNEL assay of tumor tissues. The series is classed as in vivo, BALB/c athymic nude mice. To be noted: cryosections of Huh7 tumors, n = 4; peptide given as LNP 10 mg/kg iv; lenvatinib mesylate 2 mg/kg oral. As to the method:
as §1
Mouse tumor tissues were sectioned at 5 µm thickness. Apoptotic cells were counted using the colorimetric TUNEL System (Beyotime, C1091) according to the manufacturer's instructions. The total numbers of apoptotic cells were counted in six high‐power fields and presented as an average number of apoptotic cells per high‐power fields.

In the case of “RKKRRQRRRLYPCIDSHLGEPHKFKRE [Insig1/2 loop 1 peptide]”, in series [1], the area under the curve AUC(0-t) is 326 ± 71.8 ng·h/mL, the “AUC(0-∞)” value turned out to be 331 ± 73.0 ng·h/mL, the Cl is 518 ± 109 mL/min/kg and the Tlast is 0.500 ± 0 h. In series [2], the “Insig1 S207/Insig2 S151 phosphorylation in tumors” value is recorded as “reduced”; the “Ki67 expression in tumors” value was “reduced”; the “SREBP1 expression and nuclear accumulation in tumors” value is “reduced”. In the series with tumor cell apoptosis, the “cell apoptosis in tumor tissues (TUNEL)” value is on record as “induced cell apoptosis in tumor tissues”.
